Data reported in US20090275567A1, “2-HETEROCYCLOAMINO-4-IMIDAZOLYLPYRIMIDINES AS AGENTS FOR THE INHIBITION OF CELL PROLIFERATION” (priority 2006, published 2009).

Molecular target: T1, CDK2/Cyclin E (Homo sapiens, UniProt P24941)
T1 construct: made in house; host or cells: Sf21 (Spodoptera frugiperda) insect cells, baculovirus co-infection; the GST-Rb substrate was made in E. coli BL21 (DE3) pLysS
Assay: in vitro kinase assay (Scintillation Proximity Assay), CDK2/Cyclin E, GST-Rb substrate
Format: biochemical
Details: CDK2/Cyclin E partially-purified enzyme, 0.2 μM ATP, read-out: CDK2 inhibitory activity IC50
Protocol: The compounds were tested in an in vitro kinase assay in 96 well format using Scintillation Proximity Assay (SPA—obtained from Amersham) for measuring incorporation of [γ-33-P]-Adenosine Triphosphate into a test substrate (GST-Retinoblastoma protein; GST-Rb). In each well was placed the compound to be tested (diluted in DMSO and water to correct concentrations) and in control wells either roscovitine as an inhibitor control or DMSO as a positive control. […]
The plates were sealed with Topseal-S plate sealers, left for two hrs then spun at 2500 rpm, 1124×g., for 5 mins. The plates were read on a Topcount for 30 seconds per well. […]
E. coli paste was resuspended in 10 ml/g of NETN buffer (50 mM Tris pH 7.5, 120 mM NaCl, 1 mM EDTA, 0.5% v/v NP-40, 1 mM PMSF, 1 ug/ml leupeptin, 1 ug/ml aprotinin and 1 ug/ml pepstatin) and sonicated for 2×45 seconds per 100 ml homogenate. […] The final product was analysed by Sodium Dodeca Sulfate (SDS) PAGE (Polyacrylamide gel) using 8-16% Tris-Glycine gels (Novex, San Diego, USA).
The open reading frames of CDK2 and Cyclin E were isolated by reverse transcriptase-PCR using HeLa cell and activated T cell mRNA as a template and cloned into the insect expression vector pVL1393 (obtained from Invitrogen 1995 catalogue number: V1392-20). […]

- IC50: 95 nM
SMILES: CC(=O)N1CCC(Nc2nccc(-c3cnc(C)n3C(C)C)n2)CC1 [Example 29, 1-[4-[[4-(2-Methyl-3-propan-2-yl-imidazol-4-yl)pyrimidin-2-yl]amino]-1-piperidinyl]ethanone]
